Here are results for two molecules from patent publication US20210037824A1, “HERBICIDAL MIXTURES” (BASF SE, priority 2018, published 2021).

Common to all, as to settings: scale 0 to 100
Assay [1] concerns ALOMY. Briefly: greenhouse pre-emergence herbicidal activity, ALOMY. The class given is in vivo, Alopercurus myosuroides. The source says:
(§1) The seeds of the test plants were sown separately for each species. For the pre-emergence treatment, the active compounds, suspended or emulsified in water, were applied 1 day after sowing by means of finely distributing nozzles. The containers were irrigated gently to promote germination and growth and subsequently covered with transparent plastic hoods until the plants had rooted. This cover caused uniform germination of the test plants unless this was adversely affected by the active compounds. Depending on the species, the plants were kept at 10-25° C. and 20-35° C., respectively. The test period extended over 2 to 4 weeks. During this time, the plants were tended and their response to the individual treatments was evaluated. Evaluation was carried out using a scale from 0 to 100. 100 means no emergence of the plants, or complete destruction of at least the above-ground parts, and 0 means no damage or normal course of growth. A good herbicidal activity is given at values of at least 70, and very good herbicidal activity is given at values of at least 85. […] 22ff., the value E, which is expected if the activity of the individual active compounds is only additive, was calculated. […] If the value found experimentally is higher than the value E calculated according to Colby, a synergistic effect is present.

The test system of assay [2] is GERDI. Briefly: greenhouse pre-emergence herbicidal activity, GERDI. The class given is in vivo, Geranium dissecium. An excerpt:
(§2) The seeds of the test plants were sown separately for each species. For the pre-emergence treatment, the active compounds, suspended or emulsified in water, were applied 1 day after sowing by means of finely distributing nozzles. The containers were irrigated gently to promote germination and growth and subsequently covered with transparent plastic hoods until the plants had rooted. This cover caused uniform germination of the test plants unless this was adversely affected by the active compounds. Depending on the species, the plants were kept at 10-25° C. and 20-35° C., respectively. The test period extended over 2 to 4 weeks. During this time, the plants were tended and their response to the individual treatments was evaluated. Evaluation was carried out using a scale from 0 to 100. 100 means no emergence of the plants, or complete destruction of at least the above-ground parts, and 0 means no damage or normal course of growth. A good herbicidal activity is given at values of at least 70, and very good herbicidal activity is given at values of at least 85. Trifludimoxazin was formulated as a 500 g/I suspension concentrate, the compound of formula (I) was formulated as a 50 g/I emulsifiable concentrate and, with addition of the amount of solvent system, introduced into the spray liquor used for applying the active compound. In the examples, the solvent used was water. In the examples below, using the method of S. R. Colby (1967) “Calculating synergistic and antagonistic responses of herbicide combinations”, Weeds 15, p. 22ff., the value E, which is expected if the activity of the individual active compounds is only additive, was calculated. E=X+Y−(X·Y/100) • where • X=percent activity using active compound A at an application rate a; • Y=percent activity using active compound B at an application rate b; • E=expected activity (in %) by A+B at application rates a+b. If the value found experimentally is higher than the value E calculated according to Colby, a synergistic effect is present.

Assay [3] deals with AVEFA. Briefly: greenhouse pre-emergence herbicidal activity, AVEFA. The class given is in vivo, Avena fatua.
Source text: as §1

For assay [4], the system named is MATIN. Briefly: greenhouse pre-emergence herbicidal activity, MATIN. The class given is in vivo, Matricaria inodora.
Source text: as §1

The subject of assay [5] is LAMPU. As to the kind of experiment: greenhouse pre-emergence herbicidal activity, LAMPU. The class given is in vivo, Lamium purpureum.
Source text: as §1

In assay [6] the test system is LOLMU. Briefly: greenhouse pre-emergence herbicidal activity, LOLMU. It is filed as in vivo, Lolium multiflorum.
Source text: as §1

For assay [7], the system named is IPOHE. As to the kind of experiment: greenhouse post-emergence herbicidal activity, IPOHE. The class given is in vivo, Ipomoea hederacea. The protocol:
(§3) The seeds of the test plants were sown separately for each species. For the post-emergence treatment, the test plants were grown to a plant height of from 3 to 15 cm, depending on the plant habit, and only then treated with the active compounds which had been suspended or emulsified in water. To this end, the test plants were either sown directly, and grown in the same containers, or they were first grown separately as seedlings and transplanted into the test containers one week prior to treatment. Depending on the species, the plants were kept at 10-25° C. and 20-35° C., respectively. The test period extended over 2 to 4 weeks. During this time, the plants were tended and their response to the individual treatments was evaluated. Evaluation was carried out using a scale from 0 to 100. 100 means no emergence of the plants, or complete destruction of at least the above-ground parts, and 0 means no damage or normal course of growth. A good herbicidal activity is given at values of at least 70, and very good herbicidal activity is given at values of at least 85. […] 22ff., the value E, which is expected if the activity of the individual active compounds is only additive, was calculated. […] If the value found experimentally is higher than the value E calculated according to Colby, a synergistic effect is present.

The subject of assay [8] is STEME. As to the kind of experiment: greenhouse post-emergence herbicidal activity, STEME. It is filed as in vivo, Stellaria media. As to the method:
as §3

For assay [9], the system named is POLCO. Briefly: greenhouse pre-emergence herbicidal activity, POLCO. The class given is in vivo, Polygonum convolvulus.
Source text: as §2

Assay [10] relates to STEME. Briefly: greenhouse pre-emergence herbicidal activity, STEME. It is filed as in vivo, Stellaria media.
Source text: as §2

Assay [11] deals with GALAP. Briefly: greenhouse pre-emergence herbicidal activity, GALAP. The class given is in vivo, Galium aparine.
Source text: as §1

Setting [12] is: Example 1, trifludimoxazin 9 g/ha a.s. alone.
The mark [13] stands for this setting: Example 3, trifludimoxazin 4.5 g/ha a.s. alone.
[14] abbreviates: Example 2, trifludimoxazin 4.5 g/ha a.s. alone.
The mark [15] stands for this setting: Example 6, trifludimoxazin 0.5 g/ha a.s. alone.
[16] abbreviates: Example 7, trifludimoxazin 0.25 g/ha a.s. alone.
Setting [17] is: Example 8, trifludimoxazin 0.25 g/ha a.s. alone.
The mark [18] stands for this setting: Example 1, compound (I) 15.625 g/ha a.s. alone.
Setting [19] is: Example 3, compound (I) 31.25 g/ha a.s. alone.
[20] abbreviates: Example 2, compound (I) 62.5 g/ha a.s. alone.
[21] abbreviates: Example 6, compound (I) 15.63 g/ha a.s. alone.
Setting [22] is: Example 7, compound (I) 15.63 g/ha a.s. alone.
The mark [23] stands for this setting: Example 8, compound (I) 7.81 g/ha a.s. alone.

As to `C#CCN1C(=O)C(F)(F)Oc2cc(F)c(-n3c(=O)n(C)c(=S)n(C)c3=O)cc21` [trifludimoxazin, 1,5-dimethyl-6-thioxo-3-(2,2,7-trifluoro-3-oxo-4-(prop-2-ynyl)-3,4-dihydro-2H-benzo[b][1,4]oxazin-6-yl)-1,3,5-triazinane-2,4-dione], the “herbicidal activity against ALOMY found” value in assay [1] (setting [12]) turned out to be 60%. Further, the “herbicidal activity against GERDI found” value in assay [2] (setting [12]) was 75%; in assay [2] (setting [13]) it was 0%; in [2] (Example 5, trifludimoxazin 4.5 g/ha a.s. alone), 0%. Further, the “herbicidal activity against AVEFA found” value in assay [3] (setting [14]) was determined as 35%. In addition, the “herbicidal activity against MATIN found” value in assay [4] (setting [14]) turned out to be 90%. Also, the “herbicidal activity against LAMPU found” value in assay [5] (setting [13]) is given as 98%. Also, in [6] (Example 4, trifludimoxazin 9 g/ha a.s. alone), the “herbicidal activity against LOLMU found” value amounted to 65%. For the same molecule, the “herbicidal activity against IPOHE found” value in [7] (setting [15]) was found to be 97%. Besides, the “herbicidal activity against STEME found” value in assay [8] (setting [15]) is 90%; in [10] (setting [16]) it was 80%; in assay [10] (setting [17]), 80%. Further, the “herbicidal activity against POLCO found” value in assay [9] (setting [16]) amounted to 88%; in assay [9] (setting [17]), 88%; in assay [9] (Example 10, trifludimoxazin 0.25 g/ha a.s. alone), 88%. In addition, the “herbicidal activity against GALAP found” value in [11] (Example 9, trifludimoxazin 2 g/ha a.s. alone) came to 93%.

In the case of `CC1(C)CON(Cc2ccc(Cl)cc2Cl)C1=O` [(I), 2-(2,4-dichlorophenyl)methyl-4,4-dimethyl-3-isoxazolidone], the “herbicidal activity against ALOMY found” value in [1] (setting [18]) was 0%. In addition, the “herbicidal activity against GERDI found” value in assay [2] (setting [18]) was found to be 20%; in [2] (setting [19]), 35%; in assay [2] (Example 5, compound (I) 15.625 g/ha a.s. alone), 20%. For the same molecule, the “herbicidal activity against AVEFA found” value in assay [3] (setting [20]) is given as 0%. Also, in assay [4] (setting [20]), the “herbicidal activity against MATIN found” value is 50%. In addition, in assay [5] (setting [19]), the “herbicidal activity against LAMPU found” value is recorded as 0%. Also, the “herbicidal activity against LOLMU found” value in [6] (Example 4, compound (I) 125 g/ha a.s. alone) came out at 65%. Moreover, the “herbicidal activity against IPOHE found” value in assay [7] (setting [21]) is on record as 53%. The “herbicidal activity against STEME found” value was 83% in [8] (setting [21]), 83% in assay [10] (setting [22]) and 85% in assay [10] (setting [23]). Further, the “herbicidal activity against POLCO found” value came to 60% in assay [9] (setting [22]); 50% in assay [9] (setting [23]); 73% in assay [9] (Example 10, compound (I) 62.5 g/ha a.s. alone). Moreover, the “herbicidal activity against GALAP found” value in assay [11] (Example 9, compound (I) 15.63 g/ha a.s. alone) is 73%.
